# pIC50: −log10 of the molar value.
# Target: T1, PD-1/PD-L1 (Homo sapiens, UniProt Q9NZQ7)
# T1 construct: tag1 or tag2 (identity not disclosed); purchased CisBio 64CUS000C-1
# Assay: Homogeneous Time-Resolved Fluorescence (HTRF) binding test
# Settings: CisBio kit #64CUS000C-1, read-out: IC50 values of compounds binding to PD-1/PD-L1
# Description: The binding ability of the compounds of the present disclosure to PD-1/PD-L1 was detected using Homogeneous Time-Resolved Fluorescence (HTRF) binding test.
# The purchased kit (CisBio, #64CUS000C-1) contained the reagents needed for experiments, such as PD-1, PD-L1, anti-tag1-Eu, Anti-tag2-XL665, Dilute Buffer and Detection Buffer.
# 1. The compound was prepared with 100% DMSO to 10 concentrations with a concentration gradient of 3 times.
# 2. A solution of the compound in DMSO was added into Dilute Buffer, mixed uniformly, and then transferred into 96-well plate.
# 3. PD-L1 was diluted with Dilute Buffer, and then added into the above 96-well plate.
# 4. PD-1 was diluted with Dilute Buffer, and then added into the above 96-well plate and incubated at room temperature for 30 minutes.
# 5. A part of anti-tag1-Eu and a part of Anti-tag2-XL665 were added into Detection Buffer, mixed uniformly and then transferred into the above 96-well plate.
# 6. The mixed solution in this 96-well plate was incubated at room temperature for 1 hour to 24 hours.
# 7. HTRF values were read with Envision.
# T1 sequence (Q9NZQ7 19-238 limits assumed): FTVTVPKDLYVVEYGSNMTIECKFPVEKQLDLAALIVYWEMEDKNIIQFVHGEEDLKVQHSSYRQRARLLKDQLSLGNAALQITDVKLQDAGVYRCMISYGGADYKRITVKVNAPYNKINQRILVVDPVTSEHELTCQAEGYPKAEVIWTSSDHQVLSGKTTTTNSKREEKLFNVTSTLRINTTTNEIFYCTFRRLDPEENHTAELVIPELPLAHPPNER
row,SMILES,pIC50
1,"Cc1c(/C=C/c2cc(CNCCO)ccc2C(F)(F)F)cccc1-c1cccc(/C=C/c2cc(CNCCO)ccc2C(F)(F)F)c1C [Compound 1, 2-[({3-[(E)-2-(3-{3-[(E)-2-(5-{[(2-hydroxyethyl)amino]methyl}-2-(trifluoromethyl)phenyl)ethenyl]-2-methylphenyl}-2-methylphenyl)ethenyl]-4-(trifluoromethyl)phenyl}methyl)amino]-1-ethanol]",8.21
2,"Cc1c(/C=C/c2cc(CNCCO)ccc2C(F)(F)F)cccc1-c1cccc(/C=C/c2cc(CN[C@@](C)(CO)C(=O)O)ccc2C(F)(F)F)c1C [Compound 2, (2S)-3-hydroxy-2-[({3-[(E)-2-(3-{3-[(E)-2-(5-{[(2-hydroxyethyl)amino]methyl}-2-(trifluoromethyl)phenyl)ethenyl]-2-methylphenyl}-2-methylphenyl)ethenyl]-4-(trifluoromethyl)phenyl}methyl)amino]-2-methylpropanoic Acid]",8.36
3,"Cc1c(/C=C/c2cc(CN[C@@](C)(CO)C(=O)O)ccc2C(F)(F)F)cccc1-c1cccc(/C=C/c2cc(CN[C@@](C)(CO)C(=O)O)ccc2C(F)(F)F)c1C [Compound 3, (2S)-2-[({3-[(E)-2-(3-{3-[(E)-2-[5-({[(1S)-1-carboxyl-2-hydroxy-1-methylethyl]amino}methyl)-2-(trifluoromethyl)phenyl]ethenyl]-2-methylphenyl}-2-methylphenyl)ethenyl]-4-(trifluoromethyl)phenyl}methyl)amino]-3-hydroxy-2-methylpropanoic Acid]",8.49
4,"COCCNCc1ccc(C(F)(F)F)c(/C=C/c2cccc(-c3cccc(/C=C/c4cc(CNCCO)ccc4C(F)(F)F)c3C)c2Cl)c1 [Compound 4, 2-[({3-[(E)-2-(3-{3-[(E)-2-(5-{[(2-methoxyethyl)amino]methyl}-2-(trifluoromethyl)phenyl)ethenyl]-2-chlorophenyl}-2-methylphenyl)ethenyl]-4-(trifluoromethyl)phenyl}methyl)amino]-1-ethanol]",8.37
5,"COCCNCc1ccc(C(F)(F)F)c(/C=C/c2cccc(-c3cccc(/C=C/c4cc(CN[C@@](C)(CO)C(=O)O)ccc4C(F)(F)F)c3C)c2Cl)c1 [Compound 5, (2S)-3-hydroxy-2-[({3-[(E)-2-(3-{3-[(E)-2-(5-{[(2-methoxyethyl)amino]methyl}-2-(trifluoromethyl)phenyl)ethenyl]-2-chlorophenyl}-2-methylphenyl)ethenyl]-4-(trifluoromethyl)phenyl}methyl)amino]-2-methylpropanoic Acid]",8.64
6,"Cc1c(/C=C/c2cc(CN[C@@](C)(CO)C(=O)O)ccc2C(F)(F)F)cccc1-c1cccc(/C=C/c2cc(CNCCO)ccc2C(F)(F)F)c1Cl [Compound 6, (2S)-3-hydroxy-2-[({3-[(E)-2-(3-{3-[(E)-2-(5-{[(2-hydroxyethyl)amino]methyl}-2-(trifluoromethyl)phenyl)ethenyl]-2-chlorophenyl}-2-methylphenyl)ethenyl]-4-(trifluoromethyl)phenyl}methyl)amino]-2-methylpropanoic Acid]",8.55
7,"Cc1c(/C=C/c2cc(CNCCO)ccc2C(F)(F)F)cccc1-c1cccc(/C=C/c2cc(CNCCO)ccc2C(F)(F)F)c1Cl [Compound 7, 2-[({3-[(E)-2-(3-{3-[(E)-2-(5-{[(2-hydroxyethyl)amino]methyl}-2-(trifluoromethyl)phenyl)ethenyl]-2-chlorophenyl}-2-methylphenyl)ethenyl]-4-(trifluoromethyl)phenyl}methyl)amino]-1-ethanol]",8.59
8,"COCCOc1ccc(F)c(/C=C/c2cccc(-c3cccc(/C=C/c4cc(CN[C@@](C)(CO)C(=O)O)ccc4C(F)(F)F)c3C)c2C)c1 [Compound 8, (2S)-3-hydroxy-2-[({3-[(E)-2-[3-(3-(E)-{2-[2-fluoro-5-(2-methoxyethoxy)phenyl]ethenyl}-2-methylphenyl)-2-methylphenyl]ethenyl]-4-(trifluoromethyl)phenyl}methyl)amino]-2-methylpropanoic Acid]",6.29
9,"Cc1c(/C=C/c2cc(CNCCO)ccc2C(F)(F)F)cccc1-c1cccc(-c2cccc(CNCCO)c2)c1C [Compound 9, 2-({[(3-(E)-2-{3-[3-(3-{[(2-hydroxyethyl)amino]methyl}phenyl)-2-methylphenyl]-2-methylphenyl}ethenyl)-4-(trifluoromethyl)phenyl]methyl}amino)-1-ethanol]",8.12
10,"Cc1c(/C=C/c2cc(CNCCO)ccc2C(F)(F)F)cccc1-c1cccc(-c2cc(CNCCO)ccc2F)c1C [Compound 10, 2-({[(3-(E)-2-{3-[3-(5-{[(2-hydroxyethyl)amino]methyl}-2-fluoro-phenyl)-2-methylphenyl]-2-methylphenyl}ethenyl)-4-(trifluoromethyl)phenyl]methyl}amino)-1-ethanol]",7.85
11,"Cc1c(/C=C/c2cc(CN[C@@](C)(CO)C(=O)O)ccc2C(F)(F)F)cccc1-c1cccc(-c2cc(CN[C@@](C)(CO)C(=O)O)ccc2F)c1C [Compound 11, (2S)-2-[({3-[(E)-2-(3-{3-[5-({[(1S)-1-carboxyl-2-hydroxy-1-methylethyl]amino}methyl)-2-fluorophenyl]-2-methylphenyl}-2-methylphenyl)ethenyl]-4-(trifluoromethyl)phenyl}methyl)amino]-3-hydroxy-2-methylpropanoic acid]",8.06
12,"Cc1c(/C=C/c2cc(CNCCO)ccc2C(F)(F)F)cccc1-c1cccc(/C=C/c2cc(CNCCO)ccc2C(F)(F)F)c1CF [Compound 12, 2-[({3-[(E)-2-(3-{3-[(E)-2-(5-{[(2-hydroxyethyl)amino]methyl}-2-(trifluoromethyl)phenyl)ethenyl]-2-(fluoromethyl)phenyl}-2-methylphenyl)ethenyl]-4-(trifluoromethyl)phenyl}methyl)amino]-1-ethanol]",8.33
